According to article PMC7956517, “Induction of Apoptosis and Regulation of MicroRNA Expression by (2E,6E)-2,6-bis-(4-hydroxy-3-methoxybenzylidene)-cyclohexanone (BHMC) Treatment on MCF-7 Breast Cancer Cells” (Molecules, 2021):
Each block holds one compound with its values, some of them ahead of it.

How the values were obtained:
MCF-7 cells [1] = test: miRNA microarray analysis; type: cell-based, human
Method: (§1) Total RNAs including small RNAs were isolated from MCF-7 treated with BHMC using miRNeasy kit (Qiagen, Hilden, Germany) according to manufacturer’s instructions. The quality of extracted RNA was assessed by the NanoDrop-1000 Spectrophotometer (NanoDrop Technologies Inc., Wilmington, DE, USA) and Agilent 2100 Bioanalyzer, and samples with A260/A280 ratio between 1.8 to 2.1 and an RIN value of 8 and above was used for further analysis.
Total RNA (8 µL) of control and BHMC-treated MCF-7 cells was directly labelled using Flash Tag Biotin HSR Labeling kits (Affymetrix, Santa Clara, CA, USA) in accordance with the instructions of the manufacturer. RNA was heated to 80 °C for 10 min before labeling to inactivate any residual DNase activity. RNA was hybridized for 42 h to the GeneChip miRNA 2.0 array (Affymetrix, Santa Clara, CA, USA). The GeneChip miRNA 2.0 arrays contain 100% miRBase version 15 coverage of 131 organisms and contain probes for 3439 humans non-coding RNAs (ncRNAs), including 1105 miRNAs and 2334 other ncRNAs (including scaRNAs and snoRNAs). Washing and staining were automatically performed using the Affymetrix Fluidics Station 450 (Affymetrix, Santa Clara, CA, USA), and probe intensities were measured using the GeneChip® Scanner (Affymetrix, Santa Clara, CA, USA).
Data discussed in this publication have been deposited in the NCBI Gene Expression Omnibus and are accessible through the GEO Series accession number GSE155467. Using the gene expression workflow in Partek Genomics Suite software (Cat 4462922G, Partek Inc., St. Louis, MO, USA), the CEL files generated by the Affymetrix data file were converted into .nFMT files. […] Differentially expressed miRNAs (>5-fold change, p < 0.05) were identified using analysis of variance (ANOVA) analysis.

MCF-7 cells [2] = test: Flow cytometry cell cycle analysis; type: cell-based, human; conditions: MCF-7, BHMC at IC50 (8.2 µM in figure; 12.50 µM in methods)
Method: (§2) MCF-7 cells were seeded at 0.8 × 10^5 cells/mL in a 6-well plate and left overnight in a CO2 incubator set at 37 °C. […] Untreated control was prepared simultaneously. After 24, 48, or 72 h of incubation, the cell was harvested using TrypLE (Gibco Thermo Fisher Scientific, Waltham, MA, USA), washed with phosphate buffer saline (PBS), and subjected to the following assays. All assays were tested with three biological replicates.
Cell cycle progression of control and BHMC-treated MCF-7 cells was evaluated by staining with BD Cycletest Plus kit (Becton Dickinson, Franklin Lakes, NJ, USA) and subjected to BD FACS Calibur flow cytometer (Becton Dickinson, USA) analysis. In brief, harvested cells were incubated with 250 µL of trypsin buffer for 10 min followed by addition of 200 µL of trypsin inhibitor containing RNase buffer. After 10 min of incubation, the samples were finally stained with 200 µL of PI solution. Flow cytometer analysis was carried out after 10 min of incubation with the PI stain solution. A minimum of 10,000 cells in the population was captured. Three independent experiments were repeated with similar parameter.

MDA-MB-231 cells = test: MTT cell viability assay, MDA-MB-231; type: cell-based, human; conditions: for IC50: Homo sapiens, MDA-MB-231, MTT
Method: (§3) The MTT cell viability assay for MCF-7, MDA-MB-231 and MCF 10A cells were conducted according to a previously reported protocol. MCF-7, MDA-MB-231, and MCF-10A were seeded in a 96-well plate at a concentration of 0.8 × 10^5 cells/mL and left overnight in a CO2 incubator set at 37 °C. Then, BHMC with 2-fold dilution ranging between 180 and 3 µM was added to the respective cell lines while the last row of the 96-well plate served as untreated control cells. After 24, 48, and 72 h of incubation, 20 µL of 5 mg/mL MTT solution was added to all wells and the plate was further incubated for three hours. Then, 180 µL of supernatant was carefully discarded and added with 100 µL of DMSO to solubilize the purple crystals. Optical density was measured at 570 nm wavelength using ELISA Reader (Bio-tek Instrument, Winooski, Vermont, USA). The percentage of cell viability was calculated following deduction of the blank cell absorbance using the formula (Equation (1)):(1) Cell viability % =Absorbance of treated cells/Absorbance of untreated control× 100%
(§4) The dose–response curve was plotted, and the concentration that yields 50% inhibition of cell growth (IC50) was obtained as a parameter for cytotoxicity. Starting from this point, BHMC with IC50 value was used throughout the study to induce cell death. On the other hand, selectivity index (SI) was obtained by using the following formula (Equation (2)):(2) Selectivity index SI =IC50 of MCF−10A/IC50 of MCF−7 or MDA−MB−231

MCF-7 cells [3] = test: Light and fluorescent (AO/PI) microscopic observation; type: cell-based, human; conditions: MCF-7, 8.2 µM of BHMC, 48 h
Method: as §2
Morphology of control and BHMC-treated MCF-7 cells was observed under light microscope (Nikon, Minato City, Japan). For fluorescent microscope observation, control and BHMC-treated MCF-7 cells (2 × 10^5 cells) were stained with 10 μL of 100 μg/mL acridine orange (AO) and 100 μg/mL propidium iodide (PI) for 10 min. After that, the cells were washed and examined under fluorescent microscope (Nikon FC-35DX, Minato City, Japan) using an excitation filter and barrier filter at 450–490 nm and long pass filter of 520 nm.

MCF-7 cells [4] = test: Real-time quantitative PCR of miRNAs expression; type: cell-based, human; conditions: qPCR, BHMC-treated vs untreated MCF-7
Method: as §1
One microgram (μg) of total RNA was used in reverse transcription and the process was conducted using the miScript II RT Kit (Qiagen/SABiosciences, Hilden, Germany) according to the manufacturer protocol. Quantitative RT-PCR was carried out using CFX96 (BioRad, Hercules, CA, USA). […] The miRNA-specific primers for miR-3195, miR-30a, miR-6813-5p, and miR-6132 were designed by miRprimer and commercially synthesized as listed in Table 3. The expression of putative miRNAs was evaluated using geNorm algorithms. PCR reactions were performed in triplicate for each sample. The relative amounts of miRNAs were normalized against reference miRNAs and the fold change for each miRNA was calculated by the 2^−ΔΔCt method.

MCF-7 cells [5] = test: Flow cytometry Annexin V apoptosis detection; type: cell-based, human; conditions: MCF-7, Annexin V/7ADD
Method: as §2
Cell apoptosis assay was conducted based on a study method with some changes. […] In brief, harvested cells were washed and re-suspended in 100 µL of PBS. […] Approximately, 10,000 cells in the population were captured. The experiment was qualitatively repeated for three times.

MCF-7 cells [6] = test: MTT cell viability assay, MCF-7; type: cell-based, human; conditions: for IC50: Homo sapiens, MCF7, MCF-7, MTT
Method: as §3, §4

MCF-7 cells [7] = test: Real-time quantitative PCR of mRNA expression (SNAIL, VEGF); type: cell-based, human; conditions: qPCR, BHMC-treated vs untreated MCF-7
Method: as §1
Real-time quantitative PCR was performed on SNAIL and VEGF, which were the target of miR-30a and miR-3195 [31]. One microgram (μg) of total RNA was reverse transcripted using the QuantiTect Reverse Transcription Kit (Qiagen, USA) according to the manufacturer protocol. Primers were designed using Primer-Blast (Table 2) and synthesized commercially. NEXpro qPCR Evagreen Master Mix (NEX Diagnostics, Gyeonggi-do, Korea) was used to perform the mRNA qPCR based on the manufacturer protocol. The qPCR system CFX96 (BioRad, USA) was used and the qPCR conditions were: 50 °C for 2 min, 95 °C for 10 min, and 40 cycles of 95 °C for 15 s, and 60 °C for 1 min. A final melting curve was performed to ensure that only one amplicon was present. The relative amounts of mRNAs were normalized against reference gene beta-actin (ACTB) as described previously and the fold change for each mRNA was calculated by the 2^−ΔΔCt method.

MCF-10A cells = test: MTT cell viability assay, MCF-10A; type: cell-based; conditions: Homo sapiens
Method: as §3, §4

[8] = IC50 of MCF-10A / IC50 of MDA-MB-231, 24 h
[9] = IC50 of MCF-10A / IC50 of MDA-MB-231, 48 h
[10] = IC50 of MCF-10A / IC50 of MDA-MB-231, 72 h
[11] = IC50 of MCF-10A / IC50 of MCF-7, 24 h
[12] = IC50 of MCF-10A / IC50 of MCF-7, 48 h
[13] = IC50 of MCF-10A / IC50 of MCF-7, 72 h

IC50 (MDA-MB-231 cells; 24 h): 29.4 ± 3.15 µM
IC50 (MDA-MB-231 cells; 48 h): 20.1 ± 1.94 µM
IC50 (MDA-MB-231 cells; 72 h): 19.7 ± 3.14 µM
IC50 (MCF-7 cells [6]; 24 h): 23.5 ± 2.41 µM
IC50 (MCF-7 cells [6]; 48 h): 12.5 ± 1.87 µM
IC50 (MCF-7 cells [6]; 72 h): 11 ± 1.33 µM
SMILES: COc1cc(/C=C2\CCC/C(=C\c3ccc(O)c(OC)c3)C2=O)ccc1O [BHMC, (2E,6E)-2,6-bis-(4-hydroxy-3-methoxybenzylidene)-cyclohexanone]
downregulation of miR-6813-5p, miR-6132, miR-4725-3p, miR-1587, miR-6779-5p (MCF-7 cells [1]; BHMC-treated MCF-7): at least 30 folds
upregulation of top five overexpressed miRNAs (miR-184, miR-3195, miR-149-5p, miR-30a-3p, miR532-3p) (MCF-7 cells [1]; BHMC-treated MCF-7): at least 10 folds
hsa-miR-30a-3p Upregulated Fold Change (MCF-7 cells [1]; BHMC-treated vs control MCF-7): 12.9
hsa-miR-149-5p Upregulated Fold Change (MCF-7 cells [1]; BHMC-treated vs control MCF-7): 13.06
hsa-miR-184 Upregulated Fold Change (MCF-7 cells [1]; BHMC-treated vs control MCF-7): 17.58
hsa-miR-532-3p Upregulated Fold Change (MCF-7 cells [1]; BHMC-treated vs control MCF-7): 11.73
hsa-miR-1587 Downregulated Fold Change (MCF-7 cells [1]; BHMC-treated vs control MCF-7): −35.89
hsa-miR-3195 Upregulated Fold Change (MCF-7 cells [1]; BHMC-treated vs control MCF-7): 16.21
hsa-miR-4725-3p Downregulated Fold Change (MCF-7 cells [1]; BHMC-treated vs control MCF-7): −41.51
hsa-miR-6132 Downregulated Fold Change (MCF-7 cells [1]; BHMC-treated vs control MCF-7): −61.96
hsa-miR-6779-5p Downregulated Fold Change (MCF-7 cells [1]; BHMC-treated vs control MCF-7): −33.07
hsa-miR-6813-5p Downregulated Fold Change (MCF-7 cells [1]; BHMC-treated vs control MCF-7): −71.82
percentage of cells at G2/M phase (MCF-7 cells [2]; 24 h): 24.26%
percentage of cells at Sub G0/G1 phase (MCF-7 cells [2]; 24 h): 6.64%
percentage of cells at Sub G0/G1 phase (MCF-7 cells [2]; 72 h): 22.80%
SI MCF10A/MDA-MB-231 (MDA-MB-231 cells; [8]): 6.14
SI MCF10A/MDA-MB-231 (MDA-MB-231 cells; [9]): 5.38
SI MCF10A/MDA-MB-231 (MDA-MB-231 cells; [10]): 5.00
selectivity index (SI) MDA-MB-231 against MCF-10A (MDA-MB-231 cells; summary over 24, 48 and 72 h): > 5
morphological changes, light microscope (MCF-7 cells [3]): reduced the MCF-7 cells number and severely distorted the MCF-7 cells shape
morphology, acridine orange and propidium iodide fluorescent microscopy (MCF-7 cells [3]): presented the morphological characteristics of apoptotic cells
miR-30a-3p expression increment (MCF-7 cells [4]): at least 5 fold
miR-3195 expression increment (MCF-7 cells [4]): at least 5 fold
miR-6132 downregulation (MCF-7 cells [4]): at least 10 folds
miR-6813-5p downregulation (MCF-7 cells [4]): at least 10 folds
Early apoptotic cells (MCF-7 cells [5]; BHMC at IC50, 24 h): 10.34%
Late apoptotic/necrotic cells (MCF-7 cells [5]; BHMC at IC50, 24 h): 8.81%
Early apoptotic cells (MCF-7 cells [5]; BHMC at IC50, 72 h): 43.44%
Late apoptotic/necrotic cells (MCF-7 cells [5]; BHMC at IC50, 72 h): 38.22%
SI MCF10A/MCF7 (MCF-7 cells [6]; [11]): 7.66
SI MCF10A/MCF7 (MCF-7 cells [6]; [12]): 8.64
SI MCF10A/MCF7 (MCF-7 cells [6]; [13]): 8.96
selectivity index (SI) MCF-7 against MCF-10A (MCF-7 cells [6]; summary over 24, 48 and 72 h): > 7
SNAIL mRNA expression (MCF-7 cells [7]): downregulated
VEGF mRNA expression (MCF-7 cells [7]): downregulated
IC50 (MCF-10A cells; 24 h): 180 ± 3.11 µM
IC50 (MCF-10A cells; 48 h): 108 ± 2.15 µM
IC50 (MCF-10A cells; 72 h): 98.4 ± 3.22 µM

IC50 (MDA-MB-231 cells; 24 h): 32 ± 2.81 µM
IC50 (MDA-MB-231 cells; 48 h): 26 ± 2.33 µM
IC50 (MDA-MB-231 cells; 72 h): 23 ± 2.15 µM
IC50 (MCF-7 cells [6]; 24 h): 55.7 ± 2.77 µM
IC50 (MCF-7 cells [6]; 48 h): 45.1 ± 2.12 µM
IC50 (MCF-7 cells [6]; 72 h): 39.8 ± 1.51 µM
SMILES: COc1cc(/C=C/C(=O)CC(=O)/C=C/c2ccc(O)c(OC)c2)ccc1O [Curcumin, reference compound]
SI MCF10A/MDA-MB-231 (MDA-MB-231 cells; [8]): 5.88
SI MCF10A/MDA-MB-231 (MDA-MB-231 cells; [9]): 4.31
SI MCF10A/MDA-MB-231 (MDA-MB-231 cells; [10]): 4.35
SI MCF10A/MCF7 (MCF-7 cells [6]; [11]): 3.37
SI MCF10A/MCF7 (MCF-7 cells [6]; [12]): 2.48
SI MCF10A/MCF7 (MCF-7 cells [6]; [13]): 2.51
IC50 (MCF-10A cells; 24 h): 188 ± 4.52 µM
IC50 (MCF-10A cells; 48 h): 112 ± 4.57 µM
IC50 (MCF-10A cells; 72 h): 100 ± 4.31 µM
